Data as given in patent US7728128B2, “Dibenzo[c,h][1,5]naphthyridines and their use as DNA probes” (Institut National de la Sante et de la Recherche Medicate …, priority 2006, dated 2010).

Test system: CT DNA
Assay: viscometry (hydrodynamic studies) of CT DNA solutions
Assay type: binding, calf
Settings: CT DNA 0.5 mM, drug 0.1 mM (0.2 dye/bp ratio)
Procedure: Calf thymus (CT) DNA was dissolved in 50 mM Na-phosphate buffer, pH 7.2, to a concentration of 0.1 or 0.5 mM relative to base pairs as described in the legend for FIGS. 3A and B. DNA solution was allowed to run through a custom-made capillary viscometer and the time necessary for the meniscus to pass a certain distance was measured using a stopwatch. All experiments were performed at 23° C. Viscosity values were calculated using the equation: η=(t−t0)/t0, where t is the flow time of DNA solution (with or without dye), and t0 is the flow time of Na-phosphate buffer alone. For each control and DNA solutions with dyes flow times were measured three to five times. Viscosity of DNA solutions with dyes were calculated as (η/η0)^1/3, where η0 and η are relative viscosities of the CT DNA solution in the absence and presence of the dye, respectively. This calculation stems from the relationship which exists between the relative solution viscosity and the relative contour length (L/L0): L/L0=(η/η0)^1/3, where L stands for the apparent molecular length (Muller, W. et al., 1968, J Mol Biol, 35, 251-290). Average viscosity values and standard error of the mean (SEM) were determined using (η/η0)^1/3 values calculated for each time flow measurement.
DNA-binding dyes interact with dsDNA by intercalation or external binding, or both. External binding most often involves the minor groove of DNA (Kopka et al.; Pjura, P. E., et al., 1987, J Mol Biol, 197, 257-271). Intercalation occurs when a ligand inserts itself between the opposite strands of DNA. In order to determine the mechanism of compound I binding to dsDNA, the inventors performed hydrodynamic studies. This approach is based on the observation that intercalating molecules increase the length of DNA fragments and, consequently, enhance the viscosity of DNA solutions (Muller W. et al.; Suh, D. et al., 1995, Bioorg Med Chem, 3, 723-728). For this experiment, compound I has been compared to the known DNA intercalator ethidium bromide and to the external minor groove binder Hoechst 33258. CT DNA at 0.5 mM was mixed with drugs at 0.1 mM concentration (0.2 dye/bp ratio) and used for viscometry measurements.
The inventors then wondered whether the increase in viscosity is equally matched by the increase in fluorescence intensity. To answer this question, CT DNA at 0.1 mM (bp) was mixed with increasing amounts of compound I and viscosity measurements were performed as above. The viscosity of the DNA/compound I solutions increased up to a dye/bp ratio 1 (FIG. 3B). To correlate the increase in viscosity with fluorescence, the inventors measured fluorescence intensities at 484 nm of the compound I/DNA solutions used for the viscosity measurements.

**Q.** `CN1CCN(c2ccc3[nH]c(-c4ccc5[nH]c(-c6ccc(O)cc6)nc5c4)nc3c2)CC1` [Hoechst 33258, reference compound] was tested. Which “effect on viscosity of DNA solution” value did it give?
**A.** decrease slightly
